Entries after “also recorded” stand apart in the source; their conditions may differ.
Experiments:
Format in all cases: cell-based
IGROVI = test: NCI 60 cell line screen (SRB), Ovarian Cancer
786-0 = test: NCI 60 cell line screen (SRB), Renal Cancer
NCI/ADR-RES = test: NCI 60 cell line screen (SRB), Breast Cancer
OVCAR-8 = test: NCI 60 cell line screen (SRB), Ovarian Cancer
HOP-62 = test: NCI 60 cell line screen (SRB), Non-Small Cell Lung Cancer
HCC-2998 = test: NCI 60 cell line screen (SRB), Colon Cancer
ACHN = test: NCI 60 cell line screen (SRB), Renal Cancer
LOX IMVI = test: NCI 60 cell line screen (SRB), Melanoma
SNB-19 = test: NCI 60 cell line screen (SRB), CNS Cancer
NCI-H522 = test: NCI 60 cell line screen (SRB), Non-Small Cell Lung Cancer
MALME-3M = test: NCI 60 cell line screen (SRB), Melanoma
SF-295 = test: NCI 60 cell line screen (SRB), CNS Cancer
60 cell line panel = test: NCI 60 cell line screen (SRB), whole panel
Experimental: The screening assay is performed on 96-well microtitre plates. Relatively high initial inoculation densities are used, in order to permit measurement of “time-zero” values and to enhance the screen's ability to detect and provide some differentiation between antiproliferative and cytotoxic response parameters. […] The inoculated microtitre plates are pre-incubated for 24 hours at 37θC prior to drug additions. The five drug dilutions tested routinely range from 10^−4 to 10^−8 molar. Higher or lower concentration ranges may be selected on a nonroutine basis if appropriate solubility and/or prior biological information or other screening data so dictate. Duplicate wells are prepared for all concentrations, (concentration is often denoted by placing brackets around a number); “time-zero” and “no drug” controls are also provided for each test. The minimum amount of compound required for a one-time evaluation in the routine screen can be calculated from the knowledge that each test requires a total of approximately 40 ml (0.04 liter) of cell culture medium containing the highest desired drug concentration. Thus, the amount (grams) of sample required (assuming an upper test concentration limit of 10^−4 M) is: molecular weight of compound×[…]. After a 48 hour incubation (37θC) with the test compound, the cells are fixed in situ to the bottoms of the microtitre wells by addition of 50 ul of either 50% trichloroacetic acid (for adherent cell lines) or 80% trichloroacetic acid (for settled cell suspension lines), followed by incubation for 60 minutes at 4θC. The cellular protein in each well is assayed using a sulforhodamine B (SRB) stain procedure. Briefly, after discarding the supernatants, the microtitre plates are washed 5 times with deionized water and air-dried. One hundred microliters of SRB solution (0.4% w/v in 1% acetic acid) is added to each microtitre well and incubated for 10 minutes at room temperature. Unbound SRB is removed by washing 5 times with 1 % acetic acid. The plates are air-dried, the bound stain is solubilized with Tris buffer, and the optical densities read at 515 nm. SRB is a bright pink anionic dye which, in dilute acetic acid, binds electrostatically to the basic amino acids of TCA-fixed cells. Cryopreserved master stocks of all the lines are maintained, and cultures used for screening are replaced from the master stock after no more than twenty passages in the screening laboratory. The cell line panel consists of 60 lines, organized into nine, disease-related subpanels including leukemia, non-small-cell lung cancer, colon, CNS, melanoma, ovarian, renal, prostate and breast cancers.
The response parameters G150 and LC50 are interpolated values representing the concentrations at which the percentage growth (PG) is +50 and −50, respectively:
GI50 is the concentration for which the PG=+50. At this value the increase from time tzero, in the number or mass of cells in the test well is only 50% as much as the corresponding increase in the control well during this period of the experiment, see Table II. A drug effect of this intensity is interpreted as primary growth inhibition.
TGI is the concentration for which PG=0. At this value the number or mass of cells in the well at the end of the experiment equals the number or mass of cells in the well at time tzero, see Table III. A drug effect of this intensity is regarded as cytostasis.
LC50 is the concentration for which the PG=−50. At this value, the number or mass of cells in the test well at the end of the experiment is half that at time tzero, see Table IV. This is interpreted as cytotoxicity.

RXF 393 = test: NCI 60 cell line screen (SRB), Renal Cancer
SN12C = test: NCI 60 cell line screen (SRB), Renal Cancer
SK-MEL-5 = test: NCI 60 cell line screen (SRB), Melanoma
HCT-15 = test: NCI 60 cell line screen (SRB), Colon Cancer
HT29 = test: NCI 60 cell line screen (SRB), Colon Cancer
OVCAR-5 = test: NCI 60 cell line screen (SRB), Ovarian Cancer
NCI-H322M = test: NCI 60 cell line screen (SRB), Non-Small Cell Lung Cancer

CC1=C(C=Cc2cccc(C=CC3=C(C)C4CCC(C)C5CCC6(C)OOC45C(O3)O6)c2)OC2OC3(C)CCC4C(C)CCC1C24OO3 (centres unmarked) [VII-h] was tested, and the Log10TGI (IGROVI; PG=0) was −4.20 log10M, the Log10GI50 (IGROVI; Table IV (LC50, PG=−50)) was >−4.00 log10M and the Log10TGI (786-0; PG=0) was >−4.00 log10M. The Log10GI50 (786-0; PG=+50) was −7.02 log10M, the Log10GI50 (786-0; Table IV (LC50, PG=−50)) was >−4.00 log10M and the Log10TGI (NCI/ADR-RES; PG=0) was −4.40 log10M. The Log10GI50 (NCI/ADR-RES; PG=+50) was −5.76 log10M, the Log10GI50 (NCI/ADR-RES; Table IV (LC50, PG=−50)) was >−4.00 log10M and the Log10TGI (OVCAR-8; PG=0) was >−4.00 log10M. For the same compound, the Log10GI50 (OVCAR-8; PG=+50) was −7.33 log10M, the Log10GI50 (OVCAR-8; Table IV (LC50, PG=−50)) was >−4.00 log10M and the Log10TGI (HOP-62; PG=0) was >−4.00 log10M. The Log10GI50 (HOP-62; PG=+50) was −7.08 log10M, the Log10GI50 (HOP-62; Table IV (LC50, PG=−50)) was >−4.00 log10M and the Log10TGI (HCC-2998; PG=0) was >−4.00 log10M. The Log10GI50 (HCC-2998; PG=+50) was −6.57 log10M, the Log10TGI (ACHN; PG=0) was >−4.00 log10M and the “Log10 GI50 or LC50 (see conditions)” value (ACHN; PG=+50) was −6.86 log10M. The “Log10 GI50 or LC50 (see conditions)” value (ACHN; Table IV (LC50, PG=−50)) was >−4.00 log10M, the Log10TGI (LOX IMVI; PG=0) was −5.67 log10M and the Log10GI50 (LOX IMVI; PG=+50) was −7.40 log10M. For the same compound, the Log10GI50 (LOX IMVI; Table IV (LC50, PG=−50)) was −4.15 log10M, the Log10TGI (SNB-19; PG=0) was >−4.00 log10M and the “Log10GI50 or Log10LC50 (see condition)” value (SNB-19; PG=+50) was −7.09 log10M. The “Log10GI50 or Log10LC50 (see condition)” value (SNB-19; Table IV (LC50, PG=−50)) was >−4.00 log10M, the Log10TGI (NCI-H522; PG=0) was >−4.00 log10M and the Log10GI50 (NCI-H522; PG=+50) was −7.22 log10M. For the same compound, the Log10GI50 (NCI-H522; Table IV (LC50, PG=−50)) was >−4.00 log10M, the Log10TGI (MALME-3M; PG=0) was −4.17 log10M and the Log10GI50 (MALME-3M; PG=+50) was −6.94 log10M. For the same compound, the Log10GI50 (MALME-3M; Table IV (LC50, PG=−50)) was >−4.00 log10M, the Log10TGI (SF-295; PG=0) was >−4.00 log10M and the Log10GI50 (SF-295; PG=+50) was −6.39 log10M. The “MG MID of Log10GI50 (Table IV)” value (60 cell line panel; Table IV (LC50), mean over the panel) was −4.01 log10M, the “Delta of Log10GI50 (Table IV)” value (60 cell line panel; Table IV (LC50), panel summary) was 0.43 and the “Range of Log10GI50 (Table IV)” value (60 cell line panel; Table IV (LC50), panel summary) was “.44”. For the same compound, the “potency in words, compared with artemisinin and paclitaxel” value (60 cell line panel; Tables II, III and IV) was “in most instances are as potent and in some instances more potent than paclitaxel; also recorded: more potent than artemisinin and equivalent to and in many instances higher in potency than paclitaxel”, the “MG MID of Log10GI50” value (60 cell line panel; mean over the panel) was −7.03 log10M and the “MG MID of Log10TGI” value (60 cell line panel; mean over the panel) was −4.61 log10M. The “Delta of Log10GI50” value (60 cell line panel; panel summary) was 0.97, the “Delta of Log10TGI” value (60 cell line panel; panel summary) was 2.62 and the “Range of Log10GI50” value (60 cell line panel; panel summary) was 4.00. The “Range of Log10TGI” value (60 cell line panel; panel summary) was 3.23, the Log10TGI (RXF 393; PG=0) was >−4.00 log10M and the Log10GI50 (RXF 393; PG=+50) was −6.48 log10M. For the same compound, the Log10GI50 (RXF 393; Table IV (LC50, PG=−50)) was >−4.00 log10M, the Log10TGI (SN12C; SN12C, PG=0) was >−4.00 log10M and the Log10GI50 (SN12C; SNI2C, PG=+50) was −7.31 log10M. The Log10GI50 (SN12C; Table IV (LC50, PG=−50), SN12C) was −4.00 log10M, the Log10TGI (SK-MEL-5; PG=0) was −6.21 log10M and the “Log10 GI50 or LC50” value (SK-MEL-5; PG=+50) was −7.36 log10M. The Log10TGI (HCT-15; PG=0) was >−4.00 log10M, the “log10 GI50 (PG=+50) or LC50 (PG=−50), per row condition” value (HCT-15; PG=+50) was −7.39 log10M and the “log10 GI50 (PG=+50) or LC50 (PG=−50), per row condition” value (HCT-15; Table IV (LC50, PG=−50)) was >−4.00 log10M. For the same compound, the Log10TGI (HT29; PG=0) was >−4.00 log10M, the Log10GI50 (HT29; PG=+50) was −7.37 log10M and the Log10GI50 (HT29; Table IV (LC50, PG=−50)) was >−4.00 log10M. For the same compound, the Log10TGI (OVCAR-5; PG=0) was >−4.00 log10M, the Log10GI50 (OVCAR-5; PG=+50) was −7.12 log10M and the Log10GI50 (OVCAR-5; Table IV (LC50, PG=−50)) was >−4.00 log10M. The Log10TGI (NCI-H322M; PG=0) was −5.88 log10M and the Log10GI50 (NCI-H322M; PG=+50) was −7.56 log10M.

Source: patent US20020055528A1, “Artemisinin analogs having antimalarial, antiproliferative, and antitumor activities and chemoselective methods of making the same” (priority 1999, published 2002)
